Reference: ChEMBL document CHEMBL3425507, “Separation and peroxisome proliferator-activated receptor-γ agonist activity evaluation of synthetic racemic bavachinin enantiomers” (Bioorg Med Chem Lett, 2015)

Columns and labels:
[1] = target: T1, Peroxisome proliferator-activated receptor gamma (Homo sapiens, UniProt P37231); assay: Agonist activity at PPARgamma ligand binding domain (unknown origin) using fluormone Pan-PPAR green tracer by TR-FRET assay based competitive ligand binding method
T1 sequence (P37231 whole entry): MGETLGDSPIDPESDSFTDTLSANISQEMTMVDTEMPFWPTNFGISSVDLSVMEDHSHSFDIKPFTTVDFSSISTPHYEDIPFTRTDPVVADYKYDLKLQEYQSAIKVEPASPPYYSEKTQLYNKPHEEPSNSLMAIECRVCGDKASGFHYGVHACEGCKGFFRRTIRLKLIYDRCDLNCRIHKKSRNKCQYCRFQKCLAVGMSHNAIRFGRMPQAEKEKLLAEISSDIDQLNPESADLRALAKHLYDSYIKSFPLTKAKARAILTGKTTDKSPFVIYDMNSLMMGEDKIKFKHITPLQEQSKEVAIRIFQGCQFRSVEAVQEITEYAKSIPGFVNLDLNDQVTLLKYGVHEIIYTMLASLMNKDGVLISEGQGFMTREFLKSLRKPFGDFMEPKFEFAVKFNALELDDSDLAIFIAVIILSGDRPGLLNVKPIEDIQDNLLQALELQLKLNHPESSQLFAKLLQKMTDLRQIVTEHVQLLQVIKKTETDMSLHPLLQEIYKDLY

[2] = Retention time of the compound by supercritical fluid chromatography; type: ADME

IC50 [1] [nM]	Ki [1] [nM]	Retention_time [2] [min]	SMILES
489	176	–	COc1cc2oc(-c3ccc(O)cc3)cc(=O)c2cc1CC=C(C)C [BAVACHININ]
471	169	4.99	COc1cc2c(cc1CC=C(C)C)C(=O)C[C@H](c1ccc(O)cc1)O2
617	221	4.4	COc1cc2c(cc1CC=C(C)C)C(=O)C[C@@H](c1ccc(O)cc1)O2 [BAVACHININ A]
